A short description of this series: Differential scanning calorimetry. The format is physicochemical. To be noted: 5 mg/ml in PBS, scan rate 1° C./min. The protocol:
Samples were placed in a vacuum for 30 min prior to measurement. A scan rate of 1° C./min was used for all samples. PBS was used as the reference and one scan cycle of PBS was used as the baseline. For each lipid, three cooling and heating scans were performed and the results averaged to determine the phase transition temperature of the lipids.

Molecules are shown by their SMILES.

As to `CCCCCCCCCCCCCC(=O)OC[C@H](COP(=O)([O-])OCC[N+](C)(C)C)OC(=O)CCCCCCCCCCCCC` [DMPC], the transition temperature is 24 °C.

For the origin of these results see US9072774B2, “Porphyrin nanovesicles” (UNIVERSITY HEALTH NETWORK, priority 2009, dated 2015).
